Key:
in vivo = settings: male, Sprague-Dawley, rat
[1] = Cytotoxic assay against Vero E6 cells (MTT, 72 h); type: cell-based; settings: African green monkey
Experimental: The cytotoxicity assessment of compounds was performed against Vero E6 cells. The specific experimental procedures: Vero E6 cells were seeded into a 96-well plate at a cell density of 2×10^4 cells/well, with 100 μL/well, and then incubated overnight at 37° C. in a 5% CO2 incubator. The next day, 100 μL of drug-containing medium was added to each well. The compound was diluted in a 2-fold serial dilution with a top concentration of […], for a total of 6 gradients. Three repeated wells were set for each concentration, and negative controls and blank controls without drugs were included for each experiment. […] All experimental data were analyzed using GraphPad Prism software.

[2] = male, Sprague-Dawley, rat, in vivo, iv, 1 mg/kg
[3] = molecular target: recombinant SARS-CoV-2 M^pro (Severe acute respiratory syndrome coronavirus 2 (2019-nCoV) (SARS-CoV-2), UniProt P0DTD1); assay: Inhibition of SARS-CoV-2 M^pro enzyme activity (fluorescent substrate assay); type: biochemical; settings: inhibition of SARS-CoV-2 M^pro enzyme activity; values in nM; read-out: IC50
[4] = Cytotoxic assay against HUVEC cells (MTT, 72 h); type: cell-based, human; settings: human
Experimental: (§1) BEAS-2B cells (normal human bronchial epithelial cells) and HUVEC cells (human umbilical vein endothelial cells) were used to evaluate the cytotoxicity of compounds against human-derived cells. The detailed experimental procedures: BEAS-2B cells or HUVEC cells were seeded into a 96-well plate at a cell density of 2×10^4 cells/well, that is, 100 µL/well, and then incubated overnight at 37° C. in a 5% CO2 incubator. The next day, 100 μL of drug-containing medium was added to each well. The compound was diluted in a 2-fold serial dilution with a top concentration of […], for a total of 6 gradients. Three repeated wells were set for each concentration, and negative controls and blank controls without drugs were included for each experiment. […] All experimental data were analyzed using GraphPad Prism software.

[5] = Cytotoxic assay against human BEAS-2B cells (MTT, 72 h); type: cell-based; settings: human
Experimental: as §1

[6] = Metabolic stability using human liver microsomes; type: in vitro ADME; settings: pH 7.4, NADPH, 37° C., read-out: Human liver microsomes T1/2

Compound | AUC(0-inf) (in vivo; po, 10 mg/kg) [ng·h/mL] | AUC(0-t) (in vivo; po, 10 mg/kg) [ng·h/mL] | Cmax (in vivo; po, 10 mg/kg) [ng/mL] | MRT inf (in vivo; po, 10 mg/kg) [h] | Tmax (in vivo; po, 10 mg/kg) [h] | half-life (in vivo; po, 10 mg/kg) [h] | CC50 at 72 h [1] [nM] | IC50 [3] [nM] | CC50 at 72 h [4] [nM] | CC50 at 72 h [5] [nM] | also measured
C[C@@H](NC(=O)[C@@H]1C[C@@H]2[C@H](C1)C2(F)F)C(=O)N[C@H](Cc1ccccc1)C(=O)C(=O)NCc1ccccn1 [Compound 126] | 5270 ± 327 | 5270 ± 325 | 1559 ± 11.6 | 4.02 ± 0.17 | 0.5 | 2.46 ± 0.15 | > 500000 | 11.1 ± 0.6 | – | – | AUC(0-inf) (in vivo; iv, 1 mg/kg): 1070 ± 295 ng·h/mL; AUC(0-t) (in vivo; iv, 1 mg/kg): 1050 ± 285 ng·h/mL; Cmax (in vivo; iv, 1 mg/kg): 1860 ± 138 ng/mL; MRT inf (in vivo; iv, 1 mg/kg): 1.06 ± 0.56 h; Tmax (in vivo; iv, 1 mg/kg): 0.08 h; clearance (in vivo; iv, 1 mg/kg): 4.63 ± 3.62 mL/min/kg; half-life (in vivo; iv, 1 mg/kg): 3.65 ± 3.48 h; bioavailability (in vivo; po, 10 mg/kg): 49.9 ± 3.08%; Vssobs [2]: 16.6 ± 5.41 L/kg
C[C@@H](NC(=O)C1CCC(F)(F)CC1)C(=O)N[C@H](Cc1ccccc1)C(=O)C(=O)NCc1ccccn1 [Compound 145] | 3850 ± 875 | 3830 ± 872 | 1170 ± 223 | 3.75 ± 0.56 | 0.33 ± 0.14 | 3.19 ± 0.06 | – | 17.1 ± 2.5 | – | – | AUC(0-inf) (in vivo; iv, 1 mg/kg): 1180 ± 208 ng·h/mL; AUC(0-t) (in vivo; iv, 1 mg/kg): 1160 ± 205 ng·h/mL; Cmax (in vivo; iv, 1 mg/kg): 1640 ± 86.6 ng/mL; MRT inf (in vivo; iv, 1 mg/kg): 1.09 ± 0.13 h; Tmax (in vivo; iv, 1 mg/kg): 0.08 h; clearance (in vivo; iv, 1 mg/kg): 1.73 ± 0.37 mL/min/kg; half-life (in vivo; iv, 1 mg/kg): 1.37 ± 0.05 h; bioavailability (in vivo; po, 10 mg/kg): 32.9 ± 7.51%; Vssobs [2]: 14.5 ± 2.62 L/kg
O=C(CC1CCC(F)(F)CC1)NCC(=O)N[C@H](Cc1ccccc1)C(=O)C(=O)NCc1ccccn1 [Compound 150] | 12900 ± 3230 | 12600 ± 3080 | 1300 ± 307 | 5.95 ± 0.09 | 0.42 ± 0.14 | 4.26 ± 0.63 | > 500000 | 12.2 ± 0.1 | – | – | AUC(0-inf) (in vivo; iv, 1 mg/kg): 6630 ± 2650 ng·h/mL; AUC(0-t) (in vivo; iv, 1 mg/kg): 6420 ± 2820 ng·h/mL; Cmax (in vivo; iv, 1 mg/kg): 2010 ± 322 ng/mL; MRT inf (in vivo; iv, 1 mg/kg): 3.94 ± 1.26 h; Tmax (in vivo; iv, 1 mg/kg): 0.08 h; clearance (in vivo; iv, 1 mg/kg): 0.83 ± 0.21 mL/min/kg; half-life (in vivo; iv, 1 mg/kg): 3.59 ± 0.8 h; bioavailability (in vivo; po, 10 mg/kg): 19.7 ± 4.8%; Vssobs [2]: 2.91 ± 1.48 L/kg
O=C(CNC(=O)C1CCC(F)(F)CC1)N[C@H](Cc1ccccc1)C(=O)C(=O)NCc1ccccn1 [Compound 155] | 12400 ± 2230 | 12300 ± 2270 | 1150 ± 289 | 5.98 ± 0.36 | 0.33 ± 0.14 | 3.75 ± 0.62 | 281000 | 14.1 ± 0.1 | – | – | AUC(0-inf) (in vivo; iv, 1 mg/kg): 5120 ± 628 ng·h/mL; AUC(0-t) (in vivo; iv, 1 mg/kg): 5100 ± 615 ng·h/mL; Cmax (in vivo; iv, 1 mg/kg): 1570 ± 7.88 ng/mL; MRT inf (in vivo; iv, 1 mg/kg): 3.99 ± 0.42 h; Tmax (in vivo; iv, 1 mg/kg): 0.08 h; clearance (in vivo; iv, 1 mg/kg): 0.88 ± 0.1 mL/min/kg; half-life (in vivo; iv, 1 mg/kg): 3.12 ± 0.35 h; Vssobs [2]: 3.29 ± 0.42 L/kg
CC(C)(NC(=O)C1CCC(F)(F)CC1)C(=O)N[C@H](Cc1ccccc1)C(=O)C(=O)NCc1ccccn1 [Compound 172] | – | – | – | – | – | – | 341000 | 14.9 ± 0.7 | – | – | –
CC(C)(NC(=O)[C@@H]1C[C@@H]2[C@H](C1)C2(F)F)C(=O)N[C@H](Cc1ccccc1)C(=O)C(=O)NCc1ccccn1 [Compound 174] | – | – | – | – | – | – | > 500000 | 13.2 ± 1 | – | – | –
CC(C)(NC(=O)c1cc(OC(F)(F)F)ccc1F)C(=O)N[C@H](Cc1ccccc1)C(=O)C(=O)NCc1ccccn1 [Compound 177] | – | – | – | – | – | – | 157000 | 10.5 ± 0.2 | – | – | –
O=C(NCc1ccccn1)C(=O)[C@@H](Cc1ccccc1)NC(=O)[C@H]1COCCN1C(=O)CC1CCC(F)(F)CC1 [Compound 289] | 3250 ± 462 | 3240 ± 460 | 1040 ± 349 | 2.98 ± 0.33 | 0.5 | 3.28 ± 0.19 | > 500000 | 10.6 ± 0.1 | – | – | –
O=C(NCc1ccccn1)C(=O)[C@@H](Cc1ccccc1)NC(=O)[C@H]1COCCN1C(=O)[C@H](NC(=O)c1cnccn1)C1CCCCC1 [Compound 290] | 3120 ± 894 | 3110 ± 894 | 722 ± 235 | 4.16 ± 0.3 | 0.5 | 2.66 ± 0.11 | – | 11.3 ± 0.2 | – | – | –
C[C@@H](NC(=O)N1CCC(F)(F)CC1)C(=O)N[C@H](Cc1ccccc1)C(=O)C(=O)NCc1ccccn1 [Compound 296, N—((R)-1-(((R)-3,4-dioxo-1-phenyl-4-((pyridin-2-ylmethyl)amino)butan-2-yl)amino)-1-oxopropan-2-yl)-4,4-difluoropiperidin-1-formamide] | 5190 ± 1010 | 5180 ± 1010 | 1040 ± 209 | 4.43 ± 0.87 | 0.25 | 2.8 ± 0.09 | – | 14.8 ± 0.1 | – | – | AUC(0-inf) (in vivo; iv, 1 mg/kg): 1040 ± 162 ng·h/mL; AUC(0-t) (in vivo; iv, 1 mg/kg): 1020 ± 156 ng·h/mL; Cmax (in vivo; iv, 1 mg/kg): 1400 ± 22.9 ng/mL; MRT inf (in vivo; iv, 1 mg/kg): 1.17 ± 0.44 h; Tmax (in vivo; iv, 1 mg/kg): 0.08 h; clearance (in vivo; iv, 1 mg/kg): 4.65 ± 3.87 mL/min/kg; half-life (in vivo; iv, 1 mg/kg): 3.55 ± 3.39 h; bioavailability (in vivo; po, 10 mg/kg): 50.6 ± 9.84%; Vssobs [2]: 16.3 ± 2.68 L/kg
C[C@@H](NC(=O)C1CCC(F)(F)CC1)C(=O)N[C@H](Cc1ccccc1)C(=O)C(=O)NCc1ccccn1 [Compound 317] | – | – | – | – | – | – | > 500000 | 16 ± 0.3 | – | – | –
CC(C)(C(=O)NCC1CCC(F)(F)CC1)C(=O)N[C@H](Cc1ccccc1)C(=O)C(=O)NCc1ccccn1 [Compound 324, (R)—N^1-((4,4-difluorocyclohexyl)methyl)-N^3-(3,4-dioxo-1-phenyl-4-((pyridin-2-ylmethyl)amino)butan-2-yl)-2,2-dimethylmalonamide] | – | – | – | – | – | – | > 500000 | 9.6 ± 0.1 | – | – | –
O=C(CNC(=O)C1CC12CCC(F)(F)CC2)N[C@H](Cc1ccccc1)C(=O)C(=O)NCc1ccccn1 (stereo partly shown) [Compound 333] | 22400 ± 10800 | 18700 ± 9060 | 1590 ± 573 | 7.47 ± 0.38 | 0.92 ± 0.95 | 9.74 ± 0.38 | – | 13.4 ± 0.2 | – | – | –
C[C@@H](NC(=O)C1CCCC(F)(F)C1)C(=O)N[C@H](Cc1ccccc1)C(=O)C(=O)NCc1nccs1 (stereo partly shown) [Compound 375] | – | – | – | – | – | – | > 500000 | 13.8 ± 1.2 | 384000 | 325000 | –
O=C(CC1CC(F)(F)C1)NCC(=O)N[C@H](Cc1ccccc1)C(=O)C(=O)NCc1nccs1 [Compound 387] | – | – | – | – | – | – | > 500000 | 12.5 ± 1.2 | > 500000 | > 500000 | –
O=C(NCc1nccs1)C(=O)[C@@H](Cc1ccccc1)NC(=O)[C@H]1CC(F)(F)CN1C(=O)C1CCC(F)(F)CC1 [Compound 402] | – | – | – | – | – | – | 410000 | 19.9 ± 0.3 | 327000 | > 500000 | –
C[C@@H](NC(=O)C1CCC(F)(F)C1)C(=O)N[C@H](Cc1ccccc1)C(=O)C(=O)NCc1cscn1 (stereo partly shown) [Compound 415] | – | – | – | – | – | – | > 500000 | 19.4 ± 2.2 | 468000 | > 500000 | –
C[C@@H](NC(=O)CC1CC(F)(F)C1)C(=O)N[C@H](Cc1ccccc1)C(=O)C(=O)NCc1cscn1 [Compound 418] | – | – | – | – | – | – | > 500000 | 10.6 ± 0.3 | > 500000 | > 500000 | –
O=C(CC1CC(F)(F)C1)NCC(=O)N[C@H](Cc1ccccc1)C(=O)C(=O)NCc1cscn1 [Compound 423] | – | – | – | – | – | – | > 500000 | 13.2 ± 0.2 | > 500000 | > 500000 | –
CC(C)(C)[C@H](NC(=O)C(F)(F)F)C(=O)N1C[C@H]2[C@@H]([C@H]1C(=O)N[C@H](C#N)C[C@@H]1CCNC1=O)C2(C)C [PF-07321332, Nirmatrelvir, reference compound] | – | – | – | – | – | – | – | – | – | – | half-life at 1 µM [6]: 0.353 h

From patent publication US20250064789A1, “KETOAMIDE DERIVATIVES AND PHARMACEUTICAL USES THEREOF” (priority 2022, published 2025)
